Laboratory results: patent publication US20220193072A1, “METHODS OF TREATING BREAST CANCER WITH TETRAHYDRONAPHTHALENE DERIVATIVES AS ESTROGEN RECEPTOR DEGRADER” (Arvinas Operations, Inc., priority 2020, published 2022)

Key:
[1] = tested on: MCF7 cells; experiment: Live-cell imaging growth studies and EC50 for growth inhibition, MCF7; assay type: cell-based; conditions: Homo sapiens, read-out: Approximate Half-maximal Effective Concentration (EC50) for growth inhibition
Description: (§1) MCF7, T47D, T47D ESR1 Y537S or T47D ESR1 D538G cells were seeded at 2×10^5 density per well in 6-well tissue culture-treated plates in DMEM/F12/10% FBS (2 mL total volume). […] The plate was then placed in the Incucyte® S3 Live-Cell Analysis System and images were acquired every 4 hours for a total of 5 days (120 hours). Data were analyzed using the Incucyte® Software v2020C which quantified cell surface area coverage as confluence values. Relative growth was calculated for all timepoints for all growth conditions relative to the confluence value observed for the control at 120 hours. Graphing and statistical analyses were performed using Graphpad Prism (GraphPad Software).

[2] = tested on: MCF7 cells; experiment: Luminescence-based MCF7 cell proliferation assay, dose-response matrix; conditions: 5 days (120 hours)
Description: MCF7 cells were seeded at a density of 2×10^4 cells in 200 μL of media per well in 2 technical replicate, 96-well black, clear-bottom plates and incubated overnight at 37° C. in a 5% CO2 incubator. […] DMSO was used as the vehicle control. The plates were then incubated for 5 days at 37° C. in a 5% CO2 incubator.
The plates were equilibrated to room temperature for approximately 30 minutes. 50 μL of Cell-Titer Glo (Promega) was added to all wells of the plates, covered with aluminum foil and shaken gently by hand for less than 1 minute. The plates were then incubated for 10 minutes at room temperature. Luminescence was recorded using Envision Multi Label Reader. To assess cell viability, luminescence values for drug-treated wells were normalized to average luminescence of vehicle (DMSO) wells to obtain percent viability relative to control cells. The data were analyzed with the Combenefit software.

[3] = tested on: T47D cells; experiment: Live-cell imaging growth studies and EC50 for growth inhibition, T47D; assay type: cell-based; conditions: Homo sapiens, read-out: Approximate Half-maximal Effective Concentration (EC50) for growth inhibition
Description: as §1

[4] = tested on: MCF7 xenograft; experiment: MCF7 orthotopic xenograft, combination with PI3K inhibitor alpelisib; assay type: in vivo, NOD/SCID mice
Description: NOD/SCID female mice (Charles River, 6-7 weeks old upon arrival) were implanted with 17b-estradiol 0.72 mg 90-day pellets. The next day, each mouse was implanted with 5×10^6 MCF7 cells/[…] in the axial mammary fat pad. Compound administration was initiated once the tumors reached 175-200 mm^3. Diet was supplemented with peanut butter to help maintain body weights. Dosing holidays occurred on days 6, 7, 8 and 9 due to body weight loss in some animals in study arms 3 and 4. […] (FIG. 31 and Table 15).
Dosing holidays occurred on days 6, 7, 8 and 9. Error bars represent standard deviation.
The ratio of Tween 80 to PEG-400 is 0.02 g Tween 80 to 1 ml PEG-400. PEG-400 is added to a pre-aliquoted volume of Tween 80. • For alpelisib: 1% carboxymethylcellulose (CMC), 0.5% Tween 80/DI water (‘CMC/Tween’) Sampling: tumors were measured twice weekly. Terminal sacrifice was ˜18 hr after last dose. Tumor volume calculation: Tumor Volume=(width×width×length)/2, where all measurements are in mm and the tumor volume is in mm^3. Tumor Growth Inhibition (TGI) calculation: TGI (%)

[5] = tested on: T47D ESR1 Y537S cells; experiment: Live-cell imaging growth studies and EC50 for growth inhibition, T47D ESR1 Y537S; assay type: cell-based; conditions: Homo sapiens, read-out: Approximate Half-maximal Effective Concentration (EC50) for growth inhibition
Description: as §1

[6] = tested on: T47D ESR1 D538G cells; experiment: Live-cell imaging growth studies and EC50 for growth inhibition, T47D ESR1 D538G; assay type: cell-based; conditions: Homo sapiens; T47D ESR1 D537G (so in the source); read-out: Approximate Half-maximal Effective Concentration (EC50) for growth inhibition
Description: as §1

[7] = tested on: MCF7 xenograft; experiment: MCF7 orthotopic xenograft, combination with mTOR inhibitor everolimus; assay type: in vivo, NOD/SCID mice
Description: NOD/SCID female mice (Charles River, 6-7 weeks old upon arrival) were implanted with 17b-estradiol 0.72 mg 90-day pellets. The next day, each mouse was implanted with 5×10^6 MCF7 cells/[…] per in the axial mammary fat pad. Compound administration was initiated once the tumors reached 175-200 mm^3. Diet was supplemented with peanut butter to help maintain body weights. […] (FIG. 28 and Table 13).
Error bars represent standard deviation.
The ratio of Tween 80 to PEG-400 is 0.02 g Tween 80 to 1 ml PEG-400. PEG-400 is added to a pre-aliquoted volume of Tween 80. • For everolimus: 10% DMSO, 90% (2% Tween 80, PEG 400) (DMSO/PEG/Tween) Sampling: tumors were measured twice weekly. Terminal sacrifice was ˜18 hr after last dose. Tumor volume calculation: Tumor Volume=(width×width×length)/2, where all measurements are in mm and the tumor volume is in mm^3. Tumor Growth Inhibition (TGI) calculation: TGI (%)

[8] = target: T1, ERα (Homo sapiens, UniProt P03372); experiment: ERα levels in tamoxifen-resistant MCF7 xenografts (immunoblot); assay type: in vivo, Nu/Nu mice; conditions: tamoxifen-resistant MCF7, palbociclib alone 60 mg/kg
T1 construct: robustly degrades ER in ER-positive breast cancer cell lines; endogenous in cells; host or cells: MCF7, T47D (cell culture); MCF7 and tamoxifen-resistant MCF7 xenograft tumours in mice
T1 sequence (P03372 1-595): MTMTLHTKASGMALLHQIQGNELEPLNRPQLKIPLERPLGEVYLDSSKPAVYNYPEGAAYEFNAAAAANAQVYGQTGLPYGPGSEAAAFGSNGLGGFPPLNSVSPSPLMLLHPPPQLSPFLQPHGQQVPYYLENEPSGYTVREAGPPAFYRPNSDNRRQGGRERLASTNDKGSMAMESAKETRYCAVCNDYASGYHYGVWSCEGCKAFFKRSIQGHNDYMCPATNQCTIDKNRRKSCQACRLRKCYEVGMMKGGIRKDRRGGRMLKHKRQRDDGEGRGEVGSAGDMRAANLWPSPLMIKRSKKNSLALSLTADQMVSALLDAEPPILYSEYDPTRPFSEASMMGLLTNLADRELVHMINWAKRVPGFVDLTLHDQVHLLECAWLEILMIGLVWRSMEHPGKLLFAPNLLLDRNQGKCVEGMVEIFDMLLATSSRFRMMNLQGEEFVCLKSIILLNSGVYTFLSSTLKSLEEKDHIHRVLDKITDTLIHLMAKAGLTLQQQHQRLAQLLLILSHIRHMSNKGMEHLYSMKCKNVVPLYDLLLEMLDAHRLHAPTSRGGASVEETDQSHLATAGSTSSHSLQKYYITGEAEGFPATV
Description: At study termination, the tumors were removed from the mice, and ERα levels were determined by immunoblotting the tumor homogenates. […] ERα levels from the various compound arms were compared to vehicle-treated animals by analyzing the tumor lysates on separate immunoblots (graphs in FIG. 10, FIG. 11, and FIG. 12 depict data from individual immunoblots) and the average ERα levels with standard deviation is shown.
(§2) Sampling: Tumors were measured twice weekly. Terminal sacrifice was ˜18 hr after last dose; tumors were harvested, divided, and flash frozen. ERα levels were determined by immunoblotting (see Appendix 1 for details).
Flash frozen tumors were removed from −80° C. storage and placed on dry ice. RIPA lysis buffer and Halt protease inhibitors were used at 400 μl per tumor sample. A steel ball (5 mm) was placed in each sample for tissue disruption. Samples were lysed with TissueLyzer at 24 Hz for 4 minutes. The homogenization was stopped half way through the process and the block flipped over for the duration of the process. […] Lysates were then measured for total protein concentration by BCA (per manufacturer's protocol). […]
Protein was transferred from gels to nitrocellulose with Bio-Rad Turbo on default setting. […] The blots were cut so that beta-actin and ERα can be detected from the same lane/sample. […]

[9] = tested on: tamoxifen-resistant MCF7 xenografts; experiment: Tamoxifen-resistant MCF7 orthotopic xenograft tumor growth inhibition; assay type: in vivo, Nu/Nu mice
Description: Species: Ovariectomized Nu/Nu female mice. Animal handling: Axial mammary fat pad implantation of tamoxifen-resistant tumor fragment (from E45 passage. SC per mouse. Tamoxifen pellet (5 mg, 60-day release) was implanted under the same anesthesia as tumor fragment (pellet—dorsal; tumor—ventral).
Dosing: Oral (gavage), once a day for 28 days (QD×28)
as §2

[10] = alpelisib 25 mg/kg oral QD x 19
[11] = everolimus 2.5 mg/kg oral QD x 26
[12] = palbociclib 60 mg/kg oral QD x 28

SMILES: Cc1nc(NC(=O)N2CCC[C@H]2C(N)=O)sc1-c1ccnc(C(C)(C)C(F)(F)F)c1 [Alpelisib, reference compound]
- EC50 [1]: 100 nM
- MCF7 cell proliferation, single agent [2]: dose-dependent decrease
- EC50 [3]: 100 nM
- Day 19 Tumor Volume (mean ± SD) [4, 10]: 281 ± 37 mm^3
- TGI (% vehicle) [4, 10]: 74 % vehicle
- tumor growth inhibition (TGI) ([4]; alpelisib 25 mg/kg oral once daily, 19 days, dosing holidays days 6-9): 74%

SMILES: C[C@H](Nc1ccc2c(c1)OCCn1cc(N3C(=O)OC[C@H]3C(F)F)nc1-2)C(N)=O [GDC-0077]
- EC50 [1]: 40 nM
- MCF7 cell proliferation, single agent [2]: dose-dependent decrease
- EC50 [3]: 30 nM

SMILES: CO[C@H]1C[C@@H]2CC[C@@H](C)[C@@](O)(O2)C(=O)C(=O)N2CCCC[C@H]2C(=O)O[C@H]([C@H](C)C[C@@H]2CC[C@@H](OCCO)[C@H](OC)C2)CC(=O)[C@H](C)/C=C(\C)[C@@H](O)[C@@H](OC)C(=O)[C@H](C)C[C@H](C)/C=C/C=C/C=C/1C [Everolimus, reference compound]
- EC50 [5]: 10 nM
- EC50 [6]: 10 nM
- EC50 [1]: 10 nM
- MCF7 cell proliferation, single agent [2]: dose-dependent decrease
- EC50 [3]: 100 nM
- Day 26 Tumor Volume (mean ± SD) [7, 11]: 252 ± 50 mm^3
- TGI (% vehicle) [7, 11]: 89 % vehicle
- tumor growth inhibition (TGI) ([7]; everolimus 2.5 mg/kg oral once daily, 26 days): 89%

SMILES: CC(=O)c1c(C)c2cnc(Nc3ccc(N4CCNCC4)cn3)nc2n(C2CCCC2)c1=O [Palbociclib, 6-acetyl-8-cyclopentyl-5-methyl-2-{[5-(piperazin-1-yl)pyridin-2-yl]amino}pyrido[2,3-d]pyrimidin-7(8H)-one, reference compound]
- effect on tumor ERα levels [8]: did not reduce
- Day 28 Tumor volume (mean ± SD) [9, 12]: 222 ± 139 mm^3
- TGI (% vehicle) [9, 12]: 91 % vehicle
- tumor growth inhibition (TGI) ([9]; tamoxifen-resistant MCF7, palbociclib 60 mg/kg/day oral, 28 days): 91%

SMILES: CC1(C)CCC(CN2CCN(c3ccc(C(=O)NS(=O)(=O)c4ccc(NCC5CCOCC5)c([N+](=O)[O-])c4)c(Oc4cnc5[nH]ccc5c4)c3)CC2)=C(c2ccc(Cl)cc2)C1 [Venetoclax]
- EC50 [1]: 10000 nM

SMILES: CCN1CCN(Cc2ccc(Nc3ncc(F)c(-c4cc(F)c5nc(C)n(C(C)C)c5c4)n3)nc2)CC1 [Abemaciclib]
- EC50 [1]: 40 nM
